Measurements from ChEMBL document CHEMBL1777777, “Design, synthesis of symmetrical bivalent mimetics of annonaceous acetogenins and their cytotoxicities” (Bioorg Med Chem Lett, 2011).
Calls of active or inactive are those of the source. The calls are words filed in the database; no cut-off is given here.

Experiments:
[1] = Cytotoxicity against human HLF cells after 74 hrs by MTT assay; format: cell-based; conditions: for GI50: hlf, 74 h; for GI50 at 74 h: HLF cells
MCF7 = experiment: Cytotoxicity against human MCF7 cells after 74 hrs by MTT assay; format: functional
SGC-7901 = experiment: Cytotoxicity against human SGC7901 cells after 74 hrs by MTT assay; format: functional
HT-29 = experiment: Cytotoxicity against human HT-29 cells after 74 hrs by MTT assay; format: functional
[2] = Cytotoxicity against human BEAS2B cells after 74 hrs by MTT assay; format: cell-based, BEAS-2B; conditions: for GI50: beas-2b, 74 h; for GI50 at 74 h: BEAS2B cells
HCT-116 = experiment: Cytotoxicity against human HCT116 cells after 74 hrs by MTT assay; format: functional

Compound | GI50 [1] | GI50 (MCF7) | GI50 (SGC-7901) | GI50 (HT-29) | GI50 [2] | GI50 (HCT-116) | GI50 at 74 h [1] | GI50 (MCF7; MCF7, 74 h) | GI50 (SGC-7901; SGC-7901, 74 h) | GI50 (HT-29; HT-29, 74 h) | GI50 at 74 h [2] | GI50 (HCT-116; HCT-116, 74 h)
COc1c(C)c(CCCCCCCCCN2CCN(CCCCCCCCCc3c(C)c(OC)c(OC)c(OC)c3OC)CC2)c(OC)c(OC)c1OC | Not Active | inactive | inactive | inactive | Not Active | inactive |  |  |  |  |  | 
COC1=C(OC)C(=O)C(CCCCCCCCCN2CCN(CCCCCCCCCC3=C(C)C(=O)C(OC)=C(OC)C3=O)CC2)=C(C)C1=O |  |  |  |  |  |  | > 10000 nM | 400 nM | 490 nM | > 10000 nM | > 10000 nM | 500 nM
CCCCCCCCCC[C@H](O)COCCOC[C@@H](O)CCCCCCCCCCCCC1=C[C@H](C)OC1=O |  |  |  |  |  |  | > 10000 nM | 260 nM | 60 nM | 350 nM | > 10000 nM | 110 nM
C[C@H]1C=C(CCCCCCCC(O)CNCCCNCC(O)CCCCCCCC2=C[C@H](C)OC2=O)C(=O)O1 (mixture of isomers) | Not Active | inactive | inactive | inactive | Not Active | inactive |  |  |  |  |  | 
C[C@H]1C=C(CCCCCCCC(O)CN(C)CCN(C)CC(O)CCCCCCCC2=C[C@H](C)OC2=O)C(=O)O1 (mixture of isomers) |  |  |  | inactive |  | inactive | > 10000 nM | 3160 nM | 6220 nM |  | > 10000 nM | 
C[C@H]1C=C(CCCCCCCC(O)CN(C)CCCN(C)CC(O)CCCCCCCC2=C[C@H](C)OC2=O)C(=O)O1 (mixture of isomers) |  |  |  |  |  |  | 4420 nM | 2380 nM | 4120 nM | 1500 nM | 10600 nM | > 10000 nM
C[C@H]1C=C(CCCCCCCC(O)CNc2ccc(NCC(O)CCCCCCCC3=C[C@H](C)OC3=O)cc2)C(=O)O1 (mixture of isomers) | Not Active |  |  |  | Not Active |  |  | 7370 nM | 4400 nM | 870 nM |  | 2490 nM
C[C@H]1C=C(CCCCCCCC(O)CN2CCN(CC(O)CCCCCCCC3=C[C@H](C)OC3=O)CC2)C(=O)O1 (mixture of isomers) |  |  |  |  | Not Active |  | > 10000 nM | 2190 nM | 1670 nM | > 10000 nM |  | 3720 nM
